Reference: article PMC4925161, “EssC: domain structures inform on the elusive translocation channel in the Type VII secretion system” (Biochemical Journal, 2016)

Legend:
EssC-C [1] = molecular target: T1, EssC-C (Geobacillus thermodenitrificans, UniProt A4IKE7); assay: fluorescence titration (excitation […] nm, emission […] nm); type: binding; parameters: gene eccC; C-terminal fragment, residues 966-1479 (ATPase modules D2 and D3); N-terminal His6 tag removed with TEV; E. coli host
EssC-C [2] = molecular target: T1, EssC-C; parameters: gene eccC; settings: D2 nucleotide site; ATP modelled in the second molecule (mant density ambiguous, crystal grown with mant-ATP); also present in SeMet structure without added nucleotide; displaces mant-ATP
[3] = molecular target: the molecule itself; assay: native gel or EMSA; blue native PAGE, linear 4-12% gradient native Bis-Tris gels; 8 ug purified EssC-C or 5 ug full-length EssC (DDM-solubilized) loaded; band identity by peptide mass fingerprinting

## CNc1ccccc1C(=O)O[C@H]1[C@@H](O)[C@H](n2cnc3c(N)ncnc32)O[C@@H]1CO[P@@](=O)(O)O[P@](=O)(O)OP(=O)(O)O (mixture of isomers) [mant-ATP, 2′/3′-(N-methyl-anthraniloyl)-adenosine-5′-triphosphate]
EssC-C [1]
  Kd: 940 ± 110 nM

## Nc1ncnc2c1ncn2[C@@H]1O[C@H](COP(=O)(O)OP(=O)(O)OP(=O)(O)O)[C@@H](O)[C@H]1O [ATP]
EssC-C [2]
  X-ray crystal structure (2.9 Å); displacement of mant-ATP fluorescence: ATP was present in the nucleotide-binding site of the D2 module

B1: full-length membrane-bound EssC from Geobacillus thermodenitrificans NG80-2 (natural protein, UniProt A4IKE7 1-1479, looked up)
chain: MSQLWVLYETYCQLFSLTNEEKVIVIGNQLEHHVTVSSFSFRNGYIQIEKKSDGSTLAVLQGGRQIGELKPRCSITIDVDGQQMTIAWSGEEQRKYVYYVGQQSEVLVSNDPQADIETTNARFSLRKHRGQWVVIPDDDAPLFLNGVQLSDAVSLRNGDVLLCPYMQFVFIEEDLLAVTSSEEVVSSLTETMPPLSEMKKKYPMYRRTPRMIYELPSDKVSISFPSQEGDGDPRGLWLMVLPPVMMLLVIGAVALIQPRGVFIMISIAMFATTIVTSTAQYMREKKARQMRKEKRRRIYTNYLEQKREELQALSEKQRNVLYYHFPSFEQMKSFVMQVNSRIWERTAESADFLHVRIGTADVPATYEVSVSMGDLANREIDDLLEQAQHIAKVYQTVKHVPLPIDVSHGAIGMVGKRSIVNGEIEQLVGQIAFFHSYHDVRFVAIFSEDDYKHWEWMKWLPHFQLPNSFAKGLIYNEQTRDQLLSSIYEMLRERALDEEKDKKRFSPHFVFIVADRSLIAEHVILEYLEEKNEDIGISVIFASETKESLTENVHTLVQYINEREGEIVIQHRKAAHIPFQLDEHSTEGNESFARMLRSLNHQKGMSNSIPEKVTFLEMMQTRRANELQIVQNWLSCQTSRSLAVPIGLKGRNDVVELNLHEKAHGPHGLVAGTTGSGKSELLQTYILSLAVHFHPHEVAFLIIDYKGGGMAQPFKNMPHLLGTITNIHGSKNFSARALASINSELKKRQRLFDRYEVNHINDYMELYKQGKAEQPLPHLFLIADEFAELKSEEPDFIRELVSAARIGRSLGVHLILATQKPRGVIDEQIWSNARFRISLKMQDVNDSKEILRNGDAAAITVPGRAYLQVGNNEVYELFQSAWSGAPYVEEGVEAEDEIHIVTDLGLVPVSNVATDRKRSRQKPKTEIEMVVEQIIETQKQLNIEKLPSPWLPPLPPRLARPASVTAEANAFPIGLKDEPELQSQSDYFYQWLEDGNIGIFGSAGYGKSTTMMTLLLSFAGAYNPAQLHYYIFDFGNSALLPLRQLPHTADYFRLDDEKKIEKFIKFMKEEMEQRKQRFMEKEVSTIKLYNALSEEKLPIIIVALDNFDVVKEEMPDFETQLIQYARDGQSLGIFFIMTATRVSGIRPPLMNNLKTKIVHYFIDSSEKFSLIGRTPYDVDPIPGRALIKKDNAALTQIYLPADGEDDIEVLENVKREMERLKEVYQHIPKPKPIPMLPPRLSMSVFTNTYVQHRASGFIPVGLDEQTVRPVAINMRTDPHCLIVGQSRKGKTNVVKVILESLLVQEPESIGLLDGIDRGLAGYANRDDITYIEAKERLAQWLNEADAVLQQREREYIQAVNENRATTLAWPPVVFVVDSLLRLQQETDSIMQGRIANMMKQYSHLGFHVFVAGNANEFVKGFDALTAELKQIRQAILVTKKSEQSLFALPFTRNEQEIEPGFGYFVVGGKDQKIQIPKVE
notes: also called full-length EssC; full-length recombinant protein; source: E. coli LEMO21(DE3), membranes solubilized with DDM, purified (His-Trap, SEC on Superdex 200 with 0.03% DDM)
[3]
  stoichiometry N: ~6
